Data on seven molecules can be found in article PMC7170299, “Design, synthesis, molecular modelling and biological evaluation of novel 3-(2-naphthyl)-1-phenyl-1H-pyrazole derivatives as potent antioxidants and 15-Lipoxygenase inhibitors” (Journal of Enzyme Inhibition and Medicinal Chemistry, 2020).

A word on the melting point: it is the temperature of the solid-liquid transition.

Series [1] has as its system Catalase (CAT) activity in liver. The series can be described thus: In vivo catalase (CAT) activity in liver homogenate. The following applies: rat liver, 100 mg/kg orally for 3 days; for CAT: mean ± SEM, n = 6. More on the design: species or system male Wistar albino rats. The procedure: (§1) The complete progress of the experiment was conducted using male Wistar albino rats (200–250 g), delivered by the Institutional Breeding House, Egypt, reared and maintained in the animal house of the institution. The animals had free access to food and water ad libitum and maintained in a controlled environment under standard conditions of temperature and humidity with an alternating 12 h light and dark cycle for about a week for acclimatization. The protocol of the study was approved by the Animal Ethics Committee of the Faculty of Pharmacy, Helwan University (ethical code number: 05A2019; date: October 2019). The study was conducted in accordance with the EC, directive 86/609/EEC for animal experiments.
(§2) Rats are weighed at the beginning and at the end of experiment. Fifty-four male albino rats (n=6) were divided into nine different groups. Group I served as a control group and treated with the same volume vehicle only. Group II treated with 100 mg/kg of Ascorbic acid as standard antioxidant drug. Groups (III–IX) orally administered 100 mg/kg of compounds 3a, 4e, 5b, 5c, 6a, 6c, 6e, respectively, for 3 days. The animals were sacrificed by cervical dislocation 24 h after the last dose. Sacrificing is carried out at the same time of the day, to avoid the circadian variation in the level of tissue GSH[53]. Each liver was excised, weighed, rinsed in ice-cold normal saline and frozen for not more than 72 h await analysis of endogenous antioxidant status (GSH levels and CAT activity) and lipid peroxide concentrations. For performing biochemical assays, a 10% liver homogenate in 10 mM phosphate buffer was prepared using tissue homogeniser (Glas-Col®, Cat no.099C K6424, TERRE HAUTE, USA).
Catalase activity in 10% liver homogenates was determined spectrophotometrically according to Sinha AK[54]. The decrease in absorbance at 240 nm due to H2O2 decomposition was measured and the results were expressed in U/mg tissue.

Series [2] can be described thus: Superoxide scavenging assay (pyrogallol autoxidation). As to conditions: for Superoxide scavenging potency relative to ascorbic acid: folds of ascorbic acid; for Superoxide IC50: mean ± SEM of three experiments, pyrogallol autoxidation, 325 nm.
Series [3] relates to glutathione (GSH) in liver. The series can be described thus: In vivo reduced glutathione (GSH) level in liver homogenate. More on the design: species or system male Wistar albino rats. The following applies: rat liver, 100 mg/kg orally for 3 days; for GSH: mean ± SEM, n = 6. The procedure: as §1, §2
Levels of glutathione (GSH) in liver homogenates were assayed by the deproteinization of tissue homogenate. Then […] supernatant was mixed with di-potassium hydrogen phosphate buffer (pH 8) and 0.4% 5,5′-dithiobis-2-nitrobenzoic acid (Ellman’s reagent). The yellow-coloured substance formed was measured at 412 nm. The results were expressed as GSH mg/g tissue.

Series [4] concerns lipid peroxidation (MDA) in liver. The series can be described thus: In vivo lipid peroxide level (TBARS/MDA) in liver homogenate. As to conditions: rat liver; 100 mg/kg orally for 3 days; mean ± SEM, n = 6. More on the design: species or system male Wistar albino rats. The procedure:
as §1, §2
Lipid peroxidation level in the liver homogenates was determined as thiobarbituric acid reactive substances (TBARS) by measuring malondialdehyde ‘MDA’ level according to Mihara and Uchiyama[56]. Briefly, 0.5 mL supernatant of tissue homogenate was mixed with 0.6% thiobarbituric acid (TBA) and 1% orthophosphoric acid solution, and heated in a boiling water bath for 45 min. The pink-coloured chromogen formed by the reaction of TBA with MDA was extracted by n-butanol and measured at 535 nm. The results were expressed as nmol/g tissue.

In the case of `c1ccc(C2=NNC(c3cn(-c4ccccc4)nc3-c3ccc4ccccc4c3)C2)cc1` (stereo not shown) [Compound 3a, 3′-Naphthalen-2-yl-5,1′-diphenyl-3,4-dihydro-2H,1’H-[3,4′]bipyrazole], the melting point lay within 172 to 173 °C. In addition, the CAT in series [1] was 36.21 ± 3.49 U/mg tissue. Also, in series [2], the “Superoxide scavenging potency relative to ascorbic acid” value was found to be 2.5 folds and the “Superoxide IC50” value is recorded as 50.42 ± 1.45 µg/mL. The GSH in series [3] worked out at 7.00 ± 0.27 mg/g tissue. The TBARS in series [4] is 0.350 ± 0.05 nmol/g tissue.

`Clc1ccc(C2=NN(c3ccccc3)C(c3cn(-c4ccccc4)nc3-c3ccc4ccccc4c3)C2)cc1Cl` (stereo not shown) [Compound 4e, 5-(3,4-Dichlorophenyl)-3′-naphthalen-2-yl-2,1′-diphenyl-3,4-dihydro-2H,1’H-[3,4′]-bipyrazole] returned a melting point of 172 to 173 °C. In addition, in series [1], the CAT was 43.48 ± 4.51 U/mg tissue. For the same molecule, the “Superoxide IC50” value in series [2] stood at 130.19 ± 1.1 µg/mL. In addition, the GSH in series [3] was determined as 7.05 ± 0.56 mg/g tissue. Besides, the TBARS in series [4] is on record as 0.402 ± 0.04 nmol/g tissue.

For the molecule `COc1ccc(C2=NOC(c3cn(-c4ccccc4)nc3-c3ccc4ccccc4c3)C2)cc1` (stereo not shown) [Compound 5b, 3-(4-Methoxyphenyl)-5-(3-naphthalen-2-yl-1-phenyl-1H-pyrazol-4-yl)-4,5-dihydro isoxazole], the melting point fell in the range of 197 to 198 °C. Also, in series [1], the “Increase of CAT enzyme level compared to control group” value (shortened to “Increase of CAT enzyme level”) is on record as “about 101%” and the CAT was 48.19 ± 1.24 U/mg tissue. The “Superoxide IC50” value in series [2] is 101.8 ± 1.39 µg/mL. Further, in series [3], the “Increase in GSH compared to control group” value (from here on “Increase in GSH”) was “about 52%” and the GSH is recorded as 10.71 ± 0.86 mg/g tissue. The molecule further showed a TBARS in series [4] of 0.330 ± 0.02 nmol/g tissue.

In turn, `Cc1ccc(C2=NOC(c3cn(-c4ccccc4)nc3-c3ccc4ccccc4c3)C2)cc1` (stereo not shown) [Compound 5c, 5-(3-Naphthalen-2-yl-1-phenyl-1H-pyrazol-4-yl)-3-p-tolyl-4,5-dihydroisoxazole] registered a melting point of 181 to 182 °C. For the same molecule, in series [1], the “Increase of CAT enzyme level” value is approximately 89% and the CAT is 45.42 ± 4.30 U/mg tissue. For the same molecule, in series [2], the “Superoxide scavenging potency relative to ascorbic acid” value is recorded as 2.8 folds and the “Superoxide IC50” value is on record as 44.54 ± 1.44 µg/mL. Besides, in series [3], the “Increase in GSH” value is approximately 55% and the GSH is 10.92 ± 0.96 mg/g tissue. Also, the TBARS in series [4] stood at 0.346 ± 0.01 nmol/g tissue.

In turn, `NC(=S)N1N=C(c2ccccc2)CC1c1cn(-c2ccccc2)nc1-c1ccc2ccccc2c1` (stereo not shown) [Compound 6a, 3′-Naphthalen-2-yl-5,1′-diphenyl-3,4-dihydro-1’H-[3,4′]bipyrazolyl-2-carbothioic acid amide] showed a melting point of 198 to 199 °C. The molecule further returned a CAT in series [1] of 27.97 ± 3.46 U/mg tissue. For the same molecule, the “Superoxide IC50” value in series [2] came to 127.25 ± 1.47 µg/mL. The molecule also registered a GSH in series [3] of 7.07 ± 0.35 mg/g tissue. For the same molecule, the TBARS in series [4] is 0.348 ± 0.03 nmol/g tissue.

Consider `Cc1ccc(C2=NN(C(N)=S)C(c3cn(-c4ccccc4)nc3-c3ccc4ccccc4c3)C2)cc1` (stereo not shown) [Compound 6c, 3′-Naphthalen-2-yl-1′-phenyl-5-p-tolyl-3,4-dihydro-1’H-[3,4′]bipyrazolyl-2-carbo thioic acid amide], for which the melting point was in the range of 184 to 185 °C. Moreover, the CAT in series [1] is listed as 44.38 ± 2.81 U/mg tissue. Moreover, the “Superoxide IC50” value in series [2] is listed as 140.17 ± 1.52 µg/mL. The molecule further registered a GSH in series [3] of 9.01 ± 0.72 mg/g tissue. For the same molecule, the TBARS in series [4] came out at 0.428 ± 0.02 nmol/g tissue.

Molecule `NC(=S)N1N=C(c2ccc(Cl)c(Cl)c2)CC1c1cn(-c2ccccc2)nc1-c1ccc2ccccc2c1` (stereo not shown) [Compound 6e] gave a melting point of 180 to 181 °C. In series [1], the “Increase of CAT enzyme level” value is on record as approximately 141% and the CAT is listed as 57.84 ± 3.50 U/mg tissue. Also, the “Superoxide IC50” value in series [2] is reported as 87.31 ± 1.58 µg/mL. In addition, in series [3], the “Increase in GSH” value was approximately 51% and the GSH was found to be 10.65 ± 0.97 mg/g tissue. The TBARS in series [4] came out at 0.344 ± 0.05 nmol/g tissue.
